Assay results published in patent US10076519B2 (CYTOKINETICS, INC., priority 2010, dated 2018).

These molecules were tested on rabbit skeletal myofibrils (fast skeletal myofibrils) (assay: Activation of fast skeletal myofibrils (PUMA assay, PK/LDH-coupled ATPase at pCa25)). Details: AC1.4 determined according to the procedure of Example 39; reported as class symbols.
Type: biochemical
Procedure, shortened: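 ATPase activity of Triton-washed rabbit skeletal myofibrils, roughly 90% fast fibres, tracked by NADH loss at 340 nm through a PK/LDH-coupled ADP-regenerating system. Calcium set to 25% of maximal activity (pCa25), in PIPES 12 mM pH 6.8 with 2 mM MgCl2 and 1 mM DTT; AC1.4 reported.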

Mean AC1.4 | Structure (SMILES)
D (D=>20 uM) | CC(C)(CNc1ccc(-c2ccc(C(=O)c3ccccc3)cc2)nn1)c1ccc(F)cc1 [4-(6-{[2-(4-fluorophenyl)-2-methylpropyl]amino}pyridazin-3-yl)phenyl phenyl ketone]
A (A=<1 uM) | NC(=O)c1cccc(-c2ccc(NCC3(c4ccccc4Cl)CC3)nn2)c1 [3-[6-({[(2-chlorophenyl)cyclopropyl]meth-yl}amino)pyridazin-3-yl]benzamide]
D (D=>20 uM) | CC(=O)c1ccc(NCC(C)(C)c2ccc(F)cc2)nn1 [1-(6-{[2-(4-fluorophenyl)-2-methylpropyl]amino}pyridazin-3-yl)ethan-1-one]
B (B=1-10 uM) | Cc1cc(NCC(C)(C)c2ccc(F)cc2)nnc1-c1cccc(C#N)c1 [3-(6-{[2-(4-fluorophenyl)-2-methylpropyl]amino}-4-methylpyridazin-3-yl)benzenecarbonitrile]
B (B=1-10 uM) | COc1cccnc1C1(CNc2ccc(-c3cc(C(N)=O)ccc3F)nn2)CCC1
A (A=<1 uM) | COc1cccc(C2(CNc3ccc(-c4ccc5[nH]ncc5c4)nn3)CCC2)n1 [(6-(1H-indazol-5-yl)pyridazin-3-yl){[(6-methoxy(2-pyridyl))cyclobutyl]methyl}amine]
A (A=<1 uM) | Fc1cccnc1C1(CNc2ccc(-c3ccccc3OC(F)(F)F)nn2)CCC1
A (A=<1 uM) | CC(C)(CNc1ccc(-c2ccc3[nH]nc(N)c3c2)nn1)c1cccc(C#N)c1
A (A=<1 uM) | Nc1n[nH]c2ccc(-c3ccc(NCC4(c5ccccc5F)CCC4)nn3)cc12 [[6-(3-amino(1H-indazol-5-yl))pyridazin-3-yl]{[(2-fluorophenyl)cyclobutyl]meth-yl}amine]
C (C=10-20 uM) | CC(C)(CNc1ccc(-c2n[nH]c(=O)o2)nn1)c1ccc(F)cc1 [5-(6-{[2-(4-fluorophenyl)-2-methylpropyl]amino}pyridazin-3-yl)-1,3,4-oxadiazolin-2-one]
B (B=1-10 uM) | C[C@H](CNc1ccc(-c2cccc(C(N)=O)c2)nn1)c1ccc(F)cc1
D (D=>20 uM) | CC(C)(CNc1ccc(C(=O)N[C@@H](CO)C(N)=O)nn1)c1ccc(F)cc1 [N-((1S)-1-carbamoyl-2-hydroxyethyl)(6-{[2-(4-fluorophenyl)-2-methylpropyl]amino}pyridazin-3-yl)carboxamide]

Same assay, conditions: median AC1.4 class, procedure of Example 39

Mean AC1.4 | Structure (SMILES)
B (B=1-10 uM) | O=c1[nH]nc(-c2cccc(-c3ccc(NCC4(c5ncccc5F)CCC4)nn3)c2)[nH]1 [3-{3-[6-({[(3-fluoro-2-pyridyl)cyclobutyl]methyl}ami-no)pyridazin-3-yl]phenyl}-1,2,4-triazolin-5-one]
B (B=1-10 uM) | O=c1cc(-c2ccc(NCC3(c4ncccc4F)CCC3)nn2)[nH][nH]1 [3-[6-({[(3-fluoro-2-pyridyl)cyclobutyl]methyl}ami-no)pyridazin-3-yl]-3-pyrazolin-5-one]
B (B=1-10 uM) | COc1cc(-c2ccc(NCC3(c4ncccc4F)CCC3)nn2)ccc1C(N)=O
A (A=<1 uM) | NC(=O)c1ccc(F)c(-c2ccc(NC3(c4ncccc4F)CCCC3)nn2)c1
D (D=>20 uM) | CCc1ccc(NCC2(c3ncccc3F)CCC2)nn1 [(6-ethylpyridazin-3-yl){[(3-fluoro(2-pyridyl))cyclobutyl]meth-yl}amine]
B (B=1-10 uM) | NC(=O)c1cnc(-c2ccc(NC3(c4ccc(F)cc4)CCC3)nn2)s1 [2-(6-{[(4-fluorophenyl)cyclobutyl]ami-no}pyridazin-3-yl)-1,3-thiazole-5-carboxamide]
D (D=>20 uM) | NC1(c2cnc(-c3ccc(NCC4(c5ncccc5F)CCC4)nn3)s2)COC1 [{6-[5-(3-aminooxetan-3-yl)(1,3-thiazol-2-yl)]pyridazin-3-yl}{[(3-fluoro(2-pyridyl))cyclobutyl]methyl}amine]
B (B=1-10 uM) | N#Cc1cccc(C2(Nc3ccc(-c4cc(C(N)=O)ccc4F)nn3)CCC2)n1
C (C=10-20 uM) | NC(=O)C1CCCN(C(=O)c2cnc(-c3ccc(NCC4(c5ncccc5F)CCC4)nn3)s2)C1 (centres unmarked) [1-({2-[6-({[(3-fluoro-2-pyridyl)cyclobutyl]methyl}ami-no)pyridazin-3-yl]-1,3-thiazol-5-yl}carbonyl)piperidine-3-carboxamide]
D (D=>20 uM) | N#Cc1sc(-c2ccc(NCC3(c4ncccc4F)CCC3)nn2)nc1O [2-[6-({[(3-fluoro(2-pyridyl))cyclobutyl]methyl}ami-no)pyridazin-3-yl]-4-hydroxy-1,3-thiazole-5-carbonitrile]
A (A=<1 uM) | NC(=O)c1ccc(F)c(-c2ccc(NC3(c4ncccc4Br)CCC3)nn2)c1
D (D=>20 uM) | CC(C)(O)C(N)c1ccc(-c2ccc(NCC3(c4ncccc4F)CCC3)nn2)cc1 (centres unmarked)
B (B=1-10 uM) | Fc1cccnc1C1(CNc2ccc(-c3ccc4[nH]ncc4c3)nn2)CC(F)(F)C1 [(6-(1H-indazol-5-yl)pyridazin-3-yl){[3,3-difluoro-1-(3-fluoro(2-pyridyl))cyclobutyl]methyl}amine]
A (A=<1 uM) | CC(C)(CNc1ccc(-c2ncc(C(N)=O)s2)nn1)c1ncccc1F [2-(6-{[2-(3-fluoro(2-pyridyl))-2-methylpropyl]amino}pyridazin-3-yl)-1,3-thiazole-5-carboxamide]
A (A=<1 uM) | NCCNC(=O)c1cnc(-c2ccc(NCC3(c4ncccc4F)CCC3)nn2)s1 [N-(2-aminoethyl){2-[6-({[(3-fluoro(2-pyridyl))cyclobutyl]methyl}ami-no)pyridazin-3-yl](1,3-thiazol-5-yl)}carboxamide]
B (B=1-10 uM) | COc1ccc(-c2ccc(NCC3(c4ncccc4F)CCC3)nn2)nc1 [{[(3-fluoro(2-pyridyl))cyclobutyl]methyl}[6-(5-methoxy(2-pyridyl))pyridazin-3-yl]amine]
D (D=>20 uM) | NC(=O)c1cnn(Cc2ccc(NC3(c4ncccc4F)CCC3)nn2)c1
B (B=1-10 uM) | NC(=O)Nc1ccc(-c2ccc(NC3(c4ncccc4F)CCC3)nn2)c(F)c1
B (B=1-10 uM) | CS(=O)(=O)Nc1cccc(-c2ccc(NC3(c4ncccc4F)CCC3)nn2)c1
C (C=10-20 uM) | CC(C)(O)c1cnc(-c2ccc(NCC3(c4ncccc4F)CCC3)nn2)s1 [2-{2-[6-({[(3-fluoro-2-pyridyl)cyclobutyl]methyl}ami-no)pyridazin-3-yl]-1,3-thiazol-5-yl}propan-2-ol]
A (A=<1 uM) | NC(=O)c1cccc(-c2ccc(NC3(c4ccc(F)cc4)CCC3)nn2)c1
A (A=<1 uM) | NC(=O)NCc1cnc(-c2ccc(NCC3(c4ncccc4F)CCC3)nn2)s1 [amino-N-({2-[6-({[(3-fluoro(2-pyridyl))cyclobutyl]methyl}ami-no)pyridazin-3-yl](1,3-thiazol-5-yl)}methyl)amide]
B (B=1-10 uM) | NC(=O)Nc1ccc(-c2ccc(NC3(c4ncccc4F)CCC3)nn2)cc1
D (D=>20 uM) | N#Cc1ccc(NCC2(c3ncccc3F)CCC2)nn1 [6-((1-(3-Fluoropyridin-2-yl)cyclobutyl)methylamino)pyridazine-3-carbonitrile]
A (A=<1 uM) | N[C@H](CO)C(=O)NCc1cnc(-c2ccc(NCC3(c4ncccc4F)CCC3)nn2)s1 [(2R)-2-amino-N-({2-[6-({[(3-fluoro(2-pyridyl))cyclobutyl]methyl}ami-no)pyridazin-3-yl](1,3-thiazol-5-yl)}methyl)-3-hydroxypropanamide]
C (C=10-20 uM) | CCOC(=O)c1cc(-c2ccc(NC[C@]3(c4ncccc4F)C[C@H](F)C3)nn2)ccc1F [ethyl 2-fluoro-5-[6-({[3-fluoro-1-(3-fluoro(2-pyridyl))cyclobutyl]methyl}ami-no)pyridazin-3-yl]benzoate]

Same assay, conditions: median AC1.4 reported as class; procedure of Example 39

Mean AC1.4 | Structure (SMILES)
B (B=1-10 uM) | CNC(=O)c1ccc(O)c(-c2ccc(NCC3(c4ncccc4F)CCC3)nn2)c1 [{3-[6-({[(3-fluoro(2-pyridyl))cyclobutyl]methyl}amino)pyr-idazin-3-yl]-4-hydroxyphenyl}-N-methylcarboxamide]
B (B=1-10 uM) | O=C1NCc2c1cccc2-c1ccc(NC[C@]2(c3ncccc3F)C[C@H](F)C2)nn1 [4-[6-({[3-fluoro-1-(3-fluoro(2-pyridyl))cyclobutyl]methyl}ami-no)pyridazin-3-yl]isoindolin-1-one]
D (D=>20 uM) | NC(=O)c1ccc(NCC2(c3ncccc3F)CCC2)nn1 [6-({[(3-fluoro-2-pyridyl)cyclobutyl]methyl}ami-no)pyridazine-3-carboxamide]
A (A=<1 uM) | NC(=O)c1cc(-c2ccc(NC[C@]3(c4ncccc4F)C[C@H](F)C3)nn2)ccc1O [5-[6-({[3-fluoro-1-(3-fluoro(2-pyridyl))cyclobutyl]methyl}ami-no)pyridazin-3-yl]-2-hydroxybenzamide]
C (C=10-20 uM) | Cc1cc(NCC2(c3ncccc3F)CCC2)nnc1-c1cc(C(N)=O)ccc1F [4-fluoro-3-[6-({[(3-fluoro(2-pyridyl))cyclobutyl]methyl}ami-no)-4-methylpyridazin-3-yl]benzamide]
A (A=<1 uM) | O=C(NC1CC(F)(F)C1)c1ccc(F)c(-c2ccc(NC[C@]3(c4ncccc4F)C[C@H](F)C3)nn2)c1 [N-(3,3-difluorocyclobutyl){4-fluoro-3-[6-({[3-fluoro-1-(3-fluoro(2-pyridyl))cyclobutyl]methyl}ami-no)pyridazin-3-yl]phenyl}carboxamide]
